Assay results published in the supplement of paper PMC10307832.

What was measured:
Test in all cases: relative viability (nuclei count vs DMSO), 5 days (fraction); higher = more cells survive
[1] = compound: CC(C)C[C@H](NC(=O)[C@H](CCc1ccccc1)NC(=O)CN1CCOCC1)C(=O)N[C@@H](Cc1ccccc1)C(=O)N[C@@H](CC(C)C)C(=O)[C@@]1(C)CO1 [Carfilzomib] + CC(=O)Nc1cccc(-n2c(=O)n(C3CC3)c(=O)c3c(Nc4ccc(I)cc4F)n(C)c(=O)c(C)c32)c1 [Trametinib] (partner 0.02 µM)
In short: (§1)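 Lung cancer cell lines in 1536-well plates got either a single drug or a fixed anchor-drug dose together with five library-drug doses (not always all listed) in √10 steps, by pin tool, on the day after seeding. Nuclei were counted after 5 days, and relative viability is the treated-to-vehicle ratio of nuclei counts. Values are medians of duplicate plates.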

[2] = compound: C[C@@H](Oc1cc(-c2cnn(C3CCNCC3)c2)cnc1N)c1c(Cl)ccc(F)c1Cl [Crizotinib] + CS(=O)(=O)N1CCN(Cc2cc3nc(-c4cccc5[nH]ncc45)nc(N4CCOCC4)c3s2)CC1 [Pictilisib] (partner 1 µM)
In short: as §1

[3] = compound: CC(C)C[C@H](NC(=O)[C@H](CCc1ccccc1)NC(=O)CN1CCOCC1)C(=O)N[C@@H](Cc1ccccc1)C(=O)N[C@@H](CC(C)C)C(=O)[C@@]1(C)CO1 [Carfilzomib] + COc1cc2c(Oc3ccc(NC(=O)C4(C(=O)Nc5ccc(F)cc5)CC4)cc3F)ccnc2cc1OCCCN1CCOCC1 [Foretinib] (partner 0.25 µM)
In short: as §1

[4] = compound: CC(C)C[C@H](NC(=O)[C@H](CCc1ccccc1)NC(=O)CN1CCOCC1)C(=O)N[C@@H](Cc1ccccc1)C(=O)N[C@@H](CC(C)C)C(=O)[C@@]1(C)CO1 [Carfilzomib] + NC(=O)Nc1cc(-c2cccc(F)c2)sc1C(=O)N[C@H]1CCCNC1 [AZD7762] (partner 0.2 µM)
In short: as §1

Cell Line	relative viability ([1]; first compound 0.001 µM)	relative viability ([1]; first compound 0.003162 µM)	relative viability ([1]; first compound 0.01 µM)	relative viability ([1]; first compound 0.03162 µM)	relative viability ([1]; first compound 0.1 µM)	relative viability ([2]; first compound 0.01 µM)	relative viability ([2]; first compound 0.03162 µM)	relative viability ([2]; first compound 0.1 µM)	relative viability ([2]; first compound 0.3162 µM)	relative viability ([2]; first compound 1 µM)	relative viability ([3]; first compound 0.001 µM)	relative viability ([3]; first compound 0.003162 µM)	relative viability ([3]; first compound 0.01 µM)	relative viability ([3]; first compound 0.03162 µM)	relative viability ([3]; first compound 0.1 µM)	relative viability ([4]; first compound 0.001 µM)	relative viability ([4]; first compound 0.003162 µM)	relative viability ([4]; first compound 0.01 µM)	relative viability ([4]; first compound 0.03162 µM)	relative viability ([4]; first compound 0.1 µM)
201T	0.712	0.705	0.718	0.734	0.679	0.65	0.74	0.723	0.648	0.678	1.13	1.14	1.16	1.02	0.29	0.67	0.574	0.626	0.591	0.461
A549	–	–	–	–	–	0.558	0.439	0.521	0.543	0.53	0.86	0.966	0.946	0.0732	0.0218	–	–	–	–	–
A-427	0.83	0.744	0.755	0.528	0.201	0.529	0.655	0.668	–	0.675	1.02	1.13	1.09	0.474	0.121	0.725	0.82	0.696	0.527	0.173
ABC-1	–	–	–	–	–	0.54	0.781	0.588	0.743	0.728	0.912	0.815	0.292	0.17	0.224	–	0.786	0.506	–	1.01
BEN	0.961	0.995	1.07	1.11	0.451	0.608	0.492	0.52	0.581	0.576	0.575	0.69	0.577	0.577	0.339	0.717	0.619	0.657	0.59	0.409
CAL-12T	0.367	0.288	0.428	0.167	0.11	0.345	0.472	0.466	–	0.355	1.08	1.1	1.06	0.807	0.103	0.607	0.719	0.787	0.586	0.26
COR-L23	0.565	0.739	0.577	0.0935	0.0822	0.695	0.747	0.705	0.771	0.775	0.991	1.16	0.996	0.196	0.0831	–	–	–	–	–
COR-L 105	0.451	0.458	0.416	0.35	0.328	0.353	0.386	0.39	0.354	0.403	1.31	1.13	1.05	0.779	0.26	–	–	–	–	–
Calu-6	–	–	–	–	–	0.881	0.942	–	0.937	0.865	0.889	0.933	0.842	0.127	0.0591	–	–	–	–	–
ChaGo-K-1	0.873	0.924	0.878	0.47	0.168	0.736	0.651	0.825	–	0.567	0.941	0.991	0.859	0.62	0.172	0.813	0.898	0.855	0.542	0.152
EBC-1	–	–	–	–	–	0.378	0.215	0.159	0.202	0.198	0.0996	0.124	0.121	0.0586	0.0611	–	–	–	–	–
EKVX	0.338	0.418	0.368	–	0.172	0.406	0.419	0.463	0.453	0.47	0.51	0.945	1.24	0.309	0.765	0.318	0.782	0.756	–	0.761
EMC-BAC-2	0.895	0.962	1.04	0.791	0.277	0.514	0.536	0.527	0.305	0.52	1.02	1.08	1.12	0.975	0.221	1.13	1.22	1.22	1.06	0.716
EPLC-272H	0.281	0.303	0.286	0.0724	0.0619	0.287	0.365	0.327	0.3	0.299	0.901	0.764	0.601	0.0828	0.0461	0.195	0.253	0.209	0.159	0.0687
H3255	0.67	0.737	0.643	–	0.24	0.36	0.486	0.533	0.468	0.456	0.876	0.952	0.939	0.815	0.327	0.849	0.982	1.13	0.795	0.237
HARA	0.66	0.693	0.627	0.339	0.109	0.351	0.441	0.262	0.511	0.46	0.93	0.963	1.1	0.0689	0.0561	0.454	0.232	0.398	0.18	0.146
HCC-15	0.367	0.426	0.432	0.372	0.17	0.622	0.69	0.722	0.391	0.687	0.96	1.19	1.12	0.589	0.149	1.12	1.29	1.31	1.12	0.453
HCC-44	0.966	1.08	1	1.07	0.77	0.464	0.578	0.538	0.665	0.503	–	–	–	–	–	1.01	1.02	1.03	0.988	0.716
